Source: patent publication US8871753B2, “Macrocyclic compounds and their use as kinase inhibitors” (Incyte Corporation, priority 2008, dated 2014)

Legend:
[1] = target: T1, human JAK1 (a.a. 837-1142) (Homo sapiens, UniProt P23458); assay: In vitro JAK kinase assay (HTRF, phosphorylation of a biotinylated peptide), JAK1; assay type: biochemical; conditions: Table D1; read-out: JAK1 IC50
T1 construct: human JAK1 (a.a. 837-1142); His tag (N); made in house; host or cells: insect cells (baculovirus)
Description: (§1) The catalytic activity of JAK1, JAK2 or JAK3 was assayed by measuring the phosphorylation of a biotinylated peptide. The phosphorylated peptide was detected by homogenous time resolved fluorescence (HTRF). […] The ATP concentration in the reactions was 90 μM for JAK1, 30 μM for JAK2 and 3 μM for JAK3. Reactions were carried out at room temperature for 1 hr and then stopped with 20 μL 45 mM EDTA, 300 nM SA-APC, 6 nM Eu-Py20 in assay buffer (Perkin Elmer, Boston, Mass.). Binding to the Europium labeled antibody took place for 40 minutes and HTRF signal was measured on a Fusion plate reader (Perkin Elmer, Boston, Mass.).
(§2) The catalytic activity of JAK1, JAK2 or JAK3 was assayed by measuring the phosphorylation of a biotinylated peptide. The phosphorylated peptide was detected by homogenous time resolved fluorescence (HTRF). […] Reactions were carried out at room temperature for 1 hr and then stopped with 20 μL 45 mM EDTA, 300 nM SA-APC, 6 nM Eu-Py20 in assay buffer (Perkin Elmer, Boston, Mass.). Binding to the Europium labeled antibody took place for 40 minutes and HTRF signal was measured on a Fusion plate reader (Perkin Elmer, Boston, Mass.).

[2] = target: T2, human JAK2 (a.a. 828-1132) (Homo sapiens, UniProt O60674); assay: In vitro JAK kinase assay (HTRF, phosphorylation of a biotinylated peptide), JAK2; assay type: biochemical; conditions: Table D1
T2 construct: JAK2 (a.a. 828-1132); His tag (N); made in house; host or cells: insect cells (baculovirus)
Description: as §1, §2

T1 sequence (P23458 849-1154): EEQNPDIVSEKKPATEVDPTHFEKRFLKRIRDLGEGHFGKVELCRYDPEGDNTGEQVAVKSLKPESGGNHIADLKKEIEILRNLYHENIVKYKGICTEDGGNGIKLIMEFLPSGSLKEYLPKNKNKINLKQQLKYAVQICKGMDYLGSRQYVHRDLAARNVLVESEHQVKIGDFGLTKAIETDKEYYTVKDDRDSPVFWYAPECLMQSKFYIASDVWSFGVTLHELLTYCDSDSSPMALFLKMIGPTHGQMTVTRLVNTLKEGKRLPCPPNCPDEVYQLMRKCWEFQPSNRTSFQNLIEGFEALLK
T2 sequence (O60674 828-1132): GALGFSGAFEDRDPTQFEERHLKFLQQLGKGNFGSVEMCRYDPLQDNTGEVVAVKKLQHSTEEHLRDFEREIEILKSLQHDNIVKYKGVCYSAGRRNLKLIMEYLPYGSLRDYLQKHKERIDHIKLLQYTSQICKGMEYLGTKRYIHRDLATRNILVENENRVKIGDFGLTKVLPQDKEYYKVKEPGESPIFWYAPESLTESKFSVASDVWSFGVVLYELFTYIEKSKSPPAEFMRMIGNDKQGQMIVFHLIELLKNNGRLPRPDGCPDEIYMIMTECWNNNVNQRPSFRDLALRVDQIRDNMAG

Structure (SMILES)	IC50 [1]	IC50 [2]
O=C(C[C@H]1CCN(C(=O)Nc2ccccc2)C1)Nc1ccc2cc1CCc1cncc(c1)Nc1ncc(Cl)c(n1)N2 [Example D97, (3R)-3-(2-{[6-Chloro-2,4,8,18,22-pentaazatetracyclo[14.3.1.1(3,7).1(9,13)]docosa-1(20),3(22),4,6,9(21),10,12,16,18-nonaen-12-yl]amino}-2-oxoethyl)-N-phenylpyrrolidine-1-carboxamide bis(trifluoroacetate)]	3.3 nM	84 nM
N#Cc1ccc(NC(=O)N2CC[C@H](CC(=O)Nc3ccc4cc3CCc3cncc(c3)Nc3ncc(Cl)c(n3)N4)C2)cc1 [Example D98, (3R)-3-(2-{[6-Chloro-2,4,8,18,22-pentaazatetracyclo[14.3.1.1(3,7).1(9,13)]docosa-1(20),3(22),4,6,9(21),10,12,16,18-nonaen-12-yl]amino}-2-oxoethyl)-N-(4-cyanophenyl)pyrrolidine-1-carboxamide bis(trifluoroacetate)]	12 nM	122 nM
N#Cc1cccc(NC(=O)N2CC[C@H](CC(=O)Nc3ccc4cc3CCc3cncc(c3)Nc3ncc(Cl)c(n3)N4)C2)c1 [Example D99, (3R)-3-(2-{[6-Chloro-2,4,8,18,22-pentaazatetracyclo[14.3.1.1(3,7).1(9,13)]docosa-1(20),3(22),4,6,9(21),10,12,16,18-nonaen-12-yl]amino}-2-oxoethyl)-N-(3-cyanophenyl)pyrrolidine-1-carboxamide bis(trifluoroacetate)]	15 nM	107 nM
N#Cc1ccccc1NC(=O)N1CC[C@H](CC(=O)Nc2ccc3cc2CCc2cncc(c2)Nc2ncc(Cl)c(n2)N3)C1 [Example D100, (3R)-3-(2-{[6-Chloro-2,4,8,18,22-pentaazatetracyclo[14.3.1.1(3,7).1(9,13)]docosa-1(20),3(22),4,6,9(21),10,12,16,18-nonaen-12-yl]amino}-2-oxoethyl)-N-(2-cyanophenyl)pyrrolidine-1-carboxamide bis(trifluoroacetate)]	20 nM	191 nM
O=C(C[C@H]1CCN(C(=O)Nc2cccnc2)C1)Nc1ccc2cc1CCc1cncc(c1)Nc1ncc(Cl)c(n1)N2 [Example D101, (3R)-3-(2-{[6-Chloro-2,4,8,18,22-pentaazatetracyclo[14.3.1.1(3,7).1(9,13)]docosa-1(20),3(22),4,6,9(21),10,12,16,18-nonaen-12-yl]amino}-2-oxoethyl)-N-pyridin-3-ylpyrrolidine-1-carboxamide tris(trifluoroacetate)]	14 nM	172 nM
O=C(C[C@H]1CCN(C(=O)Nc2ccc(F)cc2)C1)Nc1ccc2cc1CCc1cncc(c1)Nc1ncc(Cl)c(n1)N2 [Example D102, (3R)-3-(2-{[6-Chloro-2,4,8,18,22-pentaazatetracyclo[14.3.1.1(3,7).1(9,13)]docosa-1(20),3(22),4,6,9(21),10,12,16,18-nonaen-12-yl]amino}-2-oxoethyl)-N-(4-fluorophenyl)pyrrolidine-1-carboxamide bis(trifluoroacetate)]	2.5 nM	78 nM
O=C(C[C@H]1CCN(C(=O)Nc2cccc(F)c2)C1)Nc1ccc2cc1CCc1cncc(c1)Nc1ncc(Cl)c(n1)N2 [Example D103, (3R)-3-(2-{[6-Chloro-2,4,8,18,22-pentaazatetracyclo[14.3.1.1(3,7).1(9,13)]docosa-1(20),3(22),4,6,9(21),10,12,16,18-nonaen-12-yl]amino}-2-oxoethyl)-N-(3-fluorophenyl)pyrrolidine-1-carboxamide bis(trifluoroacetate)]	6.7 nM	113 nM
O=C(C[C@H]1CCN(C(=O)Nc2ccccc2F)C1)Nc1ccc2cc1CCc1cncc(c1)Nc1ncc(Cl)c(n1)N2 [Example D104, (3R)-3-(2-{[6-Chloro-2,4,8,18,22-pentaazatetracyclo[14.3.1.1(3,7).1(9,13)]docosa-1(20),3(22),4,6,9(21),10,12,16,18-nonaen-12-yl]amino}-2-oxoethyl)-N-(2-fluorophenyl)pyrrolidine-1-carboxamide bis(trifluoroacetate)]	8.5 nM	255 nM
O=C(C[C@H]1CCN(C(=O)c2ccno2)C1)Nc1ccc2cc1CCc1cncc(c1)Nc1ncc(Cl)c(n1)N2 [Example D105, N-[6-Chloro-2,4,8,18,22-pentaazatetracyclo[14.3.1.1(3,7).1(9,13)]docosa-1(20),3(22),4,6,9(21),10,12,16,18-nonaen-12-yl]-2-[(3R)-1-(isoxazol-5-ylcarbonyl)pyrrolidin-3-yl]acetamide bis(trifluoroacetate)]	25 nM	216 nM
Cn1ccc(C(=O)N2CC[C@H](CC(=O)Nc3ccc4cc3CCc3cncc(c3)Nc3ncc(Cl)c(n3)N4)C2)n1 [Example D106, N-[6-Chloro-2,4,8,18,22-pentaazatetracyclo[14.3.1.1(3,7).1(9,13)]docosa-1(20),3(22),4,6,9(21),10,12,16,18-nonaen-12-yl]-2-{(3R)-1-[(1-methyl-1H-pyrazol-3-yl)carbonyl]pyrrolidin-3-yl}acetamide bis(trifluoroacetate)]	32 nM	256 nM
Cn1cc(C(=O)N2CC[C@H](CC(=O)Nc3ccc4cc3CCc3cncc(c3)Nc3ncc(Cl)c(n3)N4)C2)cn1 [Example D107, N-[6-Chloro-2,4,8,18,22-pentaazatetracyclo[14.3.1.1(3,7).1(9,13)]docosa-1(20),3(22),4,6,9(21),10,12,16,18-nonaen-12-yl]-2-{(3R)-1-[(1-methyl-1H-pyrazol-4-yl)carbonyl]pyrrolidin-3-yl}acetamide bis(trifluoroacetate)]	25 nM	185 nM
Cc1oncc1C(=O)N1CC[C@H](CC(=O)Nc2ccc3cc2CCc2cncc(c2)Nc2ncc(Cl)c(n2)N3)C1 [Example D108, N-[6-Chloro-2,4,8,18,22-pentaazatetracyclo[14.3.1.1(3,7).1(9,13)]docosa-1(20),3(22),4,6,9(21),10,12,16,18-nonaen-12-yl]-2-{(3R)-1-[(5-methylisoxazol-4-yl)carbonyl]pyrrolidin-3-yl}acetamide bis(trifluoroacetate)]	62 nM	246 nM
Cc1oncc1C(=O)N1CC[C@@H](CC(=O)Nc2ccc3cc2CCc2cncc(c2)Nc2ncc(Cl)c(n2)N3)C1 [Example D123, N-[6-Chloro-2,4,8,18,22-pentaazatetracyclo[14.3.1.1(3,7).1(9,13)]docosa-1(20),3(22),4,6,9(21),10,12,16,18-nonaen-12-yl]-2-{(3S)-1-[(5-methylisoxazol-4-yl)carbonyl]pyrrolidin-3-yl}acetamide bis(trifluoroacetate)]	50 nM	
Cc1cc(C(=O)N2CC[C@@H](CC(=O)Nc3ccc4cc3CCc3cncc(c3)Nc3ncc(Cl)c(n3)N4)C2)no1 [Example D124, N-[6-Chloro-2,4,8,18,22-pentaazatetracyclo[14.3.1.1(3,7).1(9,13)]docosa-1(20),3(22),4,6,9(21),10,12,16,18-nonaen-12-yl]-2-{(3S)-1-[(5-methylisoxazol-3-yl)carbonyl]pyrrolidin-3-yl}acetamide bis(trifluoroacetate)]	16 nM	
O=C(C[C@@H]1CCN(C(=O)c2nccs2)C1)Nc1ccc2cc1CCc1cncc(c1)Nc1ncc(Cl)c(n1)N2 [Example D125, N-[6-Chloro-2,4,8,18,22-pentaazatetracyclo[14.3.1.1(3,7).1(9,13)]docosa-1(20),3(22),4,6,9(21),10,12,16,18-nonaen-12-yl]-2-[(3S)-1-(1,3-thiazol-2-ylcarbonyl)pyrrolidin-3-yl]acetamide bis(trifluoroacetate)]	34 nM	
Cn1cncc1C(=O)N1CC[C@@H](CC(=O)Nc2ccc3cc2CCc2cncc(c2)Nc2ncc(Cl)c(n2)N3)C1 [Example D126, N-[6-Chloro-2,4,8,18,22-pentaazatetracyclo[14.3.1.1(3,7).1(9,13)]docosa-1(20),3(22),4,6,9(21),10,12,16,18-nonaen-12-yl]-2-{(3S)-1-[(1-methyl-1H-imidazol-5-yl)carbonyl]pyrrolidin-3-yl}acetamide tris(trifluoroacetate)]	98 nM	
O=C(C[C@H]1CCN(C(=O)c2cc[nH]n2)C1)Nc1ccc2cc1CCc1cncc(c1)Nc1ncc(Cl)c(n1)N2 [Example D130, N-[6-Chloro-2,4,8,18,22-pentaazatetracyclo[14.3.1.1(3,7).1(9,13)]docosa-1(20),3(22),4,6,9(21),10,12,16,18-nonaen-12-yl]-2-[(3R)-1-(1H-pyrazol-3-ylcarbonyl)pyrrolidin-3-yl]acetamide bis(trifluoroacetate)]	23 nM	
O=C(C[C@@H]1CCCN(c2nc3cccnc3o2)C1)Nc1ccc2cc1CCc1cncc(c1)Nc1ncc(Cl)c(n1)N2 [Example D213, N-[6-Chloro-2,4,8,18,22-pentaazatetracyclo[14.3.1.1(3,7).1(9,13)]docosa-1(20),3(22),4,6,9(21),10,12,16,18-nonaen-12-yl]-2-[(3S)-1-[1,3]oxazolo[5,4-b]pyridin-2-ylpiperidin-3-yl]acetamide tris(trifluoroacetate)]	11 nM	
